GI50 and TGI data for seven compounds are collected here from PubChem BioAssay (NCI).

Some test systems named below: TK-10 renal; HS 578T breast; IGROV1 ovarian; SK-MEL-2 melanoma; NCI-H522 lung; K-562 leukemia; SW-620 colon; MOLT-4 leukemia; SF-295 CNS; SF-539 CNS.
What all share (experiment): inhibition of tumour cell growth, NCI panel, 48 h

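Cultured in 96-well plates, cells were exposed to test compound for 48 hours across five concentrations. GI50 is the concentration that inhibits growth by half. TGI is the concentration that stops growth completely.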

`NC(=N\N=C/c1ccc(O)cc1)/C(N)=N\N=C/c1ccc(O)cc1`: the GI50 in the assay on TK-10 renal was more than 100 µM; in the assay on HS 578T breast, more than 68.9 µM; in the assay with IGROV1 ovarian, more than 59.6 µM; in the assay on SK-MEL-2 melanoma it was more than 79 µM; in the assay with NCI-H522 lung it was 0.52 µM; with K-562 leukemia, 0.782 µM. In addition, the GI50 is more than 23.6 µM with SW-620 colon, 0.623 µM in the assay on MOLT-4 leukemia, 3.3 µM with SF-295 CNS and 3.99 µM in the assay on SF-539 CNS. The TGI in the assay with TK-10 renal, in the assay with HS 578T breast, in the assay on IGROV1 ovarian, with SK-MEL-2 melanoma, in the assay on NCI-H522 lung and in the assay with K-562 leukemia was more than 100 µM in each case. The TGI with SW-620 colon, in the assay with MOLT-4 leukemia, with SF-295 CNS and in the assay with SF-539 CNS was more than 100 µM throughout.
In the case of `COC(=O)c1cc(-c2ccccc2)[nH]c1N/N=C/c1c(Cl)cccc1Cl`, the GI50 in the assay with TK-10 renal is 0.392 µM; with HS 578T breast it was 0.221 µM; in the assay on IGROV1 ovarian, 0.412 µM; with SK-MEL-2 melanoma it was 0.615 µM; with NCI-H522 lung, 0.26 µM; in the assay on K-562 leukemia, 0.729 µM. Also, the GI50 was 0.279 µM in the assay with SW-620 colon, 0.437 µM in the assay with MOLT-4 leukemia, 0.195 µM with SF-295 CNS and 0.218 µM with SF-539 CNS. Besides, the TGI with TK-10 renal was 2.4 µM; with HS 578T breast it was 3.5 µM; with SK-MEL-2 melanoma it was 17.2 µM; in the assay on K-562 leukemia it was more than 100 µM; with SW-620 colon, more than 38.8 µM; in the assay with MOLT-4 leukemia, more than 100 µM. In addition, the values for the TGI in the assay on SF-295 CNS and in the assay on SF-539 CNS were 0.92 µM and 0.605 µM, respectively.
Turning to `C=CC(=O)N1CCC(c2ccc(C(N)=O)c(-c3ccc(Oc4ccccc4)cc3)n2)CC1`, the GI50 in the assay with TK-10 renal was 19.2 µM; in the assay with HS 578T breast, 37.2 µM; in the assay on IGROV1 ovarian it was 19.1 µM; in the assay with SK-MEL-2 melanoma it was 27.1 µM; in the assay with NCI-H522 lung it was 11.2 µM; in the assay on K-562 leukemia, 26.9 µM. Moreover, the GI50 in the assay on SW-620 colon was 41.2 µM; in the assay with MOLT-4 leukemia, 27.3 µM; in the assay on SF-295 CNS it was 27.3 µM; in the assay with SF-539 CNS it was 40.3 µM. Also, the TGI is 99.4 µM in the assay on TK-10 renal; more than 100 µM in the assay with HS 578T breast; more than 100 µM in the assay on IGROV1 ovarian; more than 100 µM in the assay on SK-MEL-2 melanoma; 60.3 µM in the assay on NCI-H522 lung; more than 100 µM with K-562 leukemia. Also, the TGI with SW-620 colon, with MOLT-4 leukemia, in the assay with SF-295 CNS and in the assay on SF-539 CNS was more than 100 µM throughout.
As to `O=[N+]([O-])c1cc[n+]([O-])c2ccccc12`, the GI50 in the assay with TK-10 renal is 0.187 µM; in the assay with HS 578T breast it was 0.216 µM; in the assay on IGROV1 ovarian it was 0.259 µM; with SK-MEL-2 melanoma it was 0.169 µM; with NCI-H522 lung, 0.214 µM; with K-562 leukemia, 0.26 µM. In addition, the GI50 was 0.106 µM with SW-620 colon, 1.9 µM in the assay with MOLT-4 leukemia, 0.2 µM in the assay on SF-295 CNS and 0.181 µM in the assay with SF-539 CNS. Besides, the TGI in the assay with TK-10 renal was determined as 0.707 µM; in the assay with HS 578T breast, 0.703 µM; in the assay with IGROV1 ovarian it was 1.03 µM; in the assay with SK-MEL-2 melanoma, 0.377 µM; in the assay on NCI-H522 lung, 0.754 µM; in the assay on K-562 leukemia, 2.07 µM. The TGI turned out to be 0.56 µM in the assay with SW-620 colon, 6.35 µM with MOLT-4 leukemia, 0.627 µM in the assay with SF-295 CNS and 0.541 µM with SF-539 CNS.
With `C=C1C(=O)O[C@H]2[C@H]1CC/C(COC(=O)CCCCCC(=O)OC/C1=C/CC[C@@]3(C)O[C@H]3[C@H]3OC(=O)C(=C)[C@@H]3CC1)=C\CC[C@@]1(C)O[C@@H]21`, the GI50 is 2.58 µM in the assay with TK-10 renal; 2.72 µM in the assay on HS 578T breast; 2.51 µM in the assay with IGROV1 ovarian; 5.17 µM in the assay on SK-MEL-2 melanoma; 1.72 µM in the assay on NCI-H522 lung; 1.18 µM in the assay on K-562 leukemia. Moreover, the GI50 in the assay with SW-620 colon is 1.35 µM; with MOLT-4 leukemia it was 0.633 µM; with SF-295 CNS, 4.09 µM; in the assay on SF-539 CNS, 1.67 µM. The TGI with TK-10 renal stood at 5.7 µM; with HS 578T breast it was 22 µM; in the assay on IGROV1 ovarian, 9.32 µM; with SK-MEL-2 melanoma, 21.2 µM; with NCI-H522 lung it was 3.44 µM; in the assay with K-562 leukemia it was 10.2 µM. Further, the TGI in the assay with SW-620 colon stood at 3.14 µM; with MOLT-4 leukemia it was 4.1 µM; in the assay with SF-295 CNS, 16.5 µM; with SF-539 CNS, 3.58 µM.
As for `O=C(CCN1CCCC1)Nc1ccc2c(NCc3ccccc3)c3ccccc3nc2c1`, the GI50 with TK-10 renal is 0.802 µM; in the assay on HS 578T breast, 0.612 µM; with IGROV1 ovarian it was 0.383 µM; in the assay on SK-MEL-2 melanoma, 0.598 µM; in the assay with NCI-H522 lung it was 0.298 µM; in the assay with K-562 leukemia, 0.385 µM. The GI50 with SW-620 colon was 0.316 µM; in the assay on MOLT-4 leukemia, 0.364 µM; with SF-295 CNS, 0.494 µM; with SF-539 CNS, 0.422 µM. Besides, the TGI came to 3.5 µM in the assay on TK-10 renal; 2.75 µM in the assay with HS 578T breast; 1.67 µM in the assay with IGROV1 ovarian; 2.08 µM in the assay on SK-MEL-2 melanoma; 1.34 µM with NCI-H522 lung; 1.41 µM in the assay on K-562 leukemia. Also, the TGI in the assay with SW-620 colon came out at 1.44 µM; in the assay with MOLT-4 leukemia, 2.03 µM; with SF-295 CNS, 1.91 µM; in the assay with SF-539 CNS it was 1.58 µM.
Take `COc1ccc(C(=O)Cn2c(C(=O)c3ccccc3)nc3ccccc32)cc1`: the GI50 in the assay with TK-10 renal was 11 µM; in the assay on HS 578T breast, 2.81 µM; in the assay with IGROV1 ovarian it was 6.19 µM; with NCI-H522 lung it was 2.16 µM; in the assay with K-562 leukemia, 0.54 µM; in the assay with SW-620 colon it was 1.15 µM. In addition, the GI50 is 1.87 µM with MOLT-4 leukemia, 3.19 µM in the assay on SF-295 CNS and 3.03 µM in the assay on SF-539 CNS. Besides, the TGI is more than 100 µM in the assay on TK-10 renal; more than 100 µM with HS 578T breast; more than 100 µM in the assay on IGROV1 ovarian; more than 100 µM in the assay on SK-MEL-2 melanoma; more than 26.7 µM in the assay on NCI-H522 lung; more than 100 µM in the assay on K-562 leukemia. Moreover, the TGI in the assay with SW-620 colon, with MOLT-4 leukemia, in the assay with SF-295 CNS and in the assay with SF-539 CNS was more than 100 µM throughout.
